Here are results for ten compounds from USRE35053E, “Amines useful in producing pharmaceutically active CNS compounds” (The Upjohn Company, priority 1992, dated 1995).

SMILES strings stand for the structures. Where a name gives a salt, the structure may show the parent alone.

For the first experiment, the system named is angiogenesis. In words: fertile egg or chick embryo assay of Folkman (inhibition of angiogenesis / tumor growth). It counts as in vivo. Particulars: chick embryo; 50 μg/10 μl in the presence of heparin. How it is done:
According to this procedure compounds which are considered to be "active" (i.e, antiangiogenic) give an avascular zone of 4 mm or greater in some embryos when tested at 50 μg/10 μl in the presence of 50 μg/10 μ of heparin.
On to `C[C@]12CCC(=O)C=C1CC[C@@H]1[C@@H]2C(=O)C[C@@]2(C)[C@H]1CC[C@]2(O)C(=O)CN1CCN(c2ccccn2)CC1` [Example 20], for which the “% of Embryos with 4 mm or Greater A vascular Zone” value (from here on “% of Embryos”) worked out at 72%.

With `C[C@H]1C[C@H]2[C@@H]3CC[C@H]4CC(=O)CC[C@]4(C)C3=CC[C@]2(C)[C@@]1(O)C(=O)CN1CCN(c2ccccn2)CC1.Cl.Cl.O` [Example 44, 17α-hydroxy-16β-methyl-21-[4-(2-pyridinyl)-1-piperazinyl]-5α-pregn-9(11)-ene-3,20-dione dihydrochloride hydrate], the “% of Embryos” value is recorded as 75%.

For the compound `COc1ccccc1N1CCN(CC(=O)[C@@]2(O)CC[C@H]3[C@@H]4CCC5=CC(=O)CC[C@]5(C)[C@H]4CC[C@@]32C)CC1.Cl.Cl.O` [Example 41, 17α-hydroxy-21-[4-(2-methoxyphenyl)-1-piperazinyl]-pregn-4-ene-3,20-dione dihydrochloride hydrate], the “% of Embryos” value was found to be 80%.

Staying with this experiment, now noted: chick embryo; 50 μg/10 μl with heparin; avascular zone 4 mm or greater.
With `C[C@]12CCC(=O)C=C1CC[C@@H]1C2=CC[C@@]2(C)[C@H]1CC[C@]2(O)C(=O)CN1CCN(C(=O)c2ccco2)CC1` [Example 6B, 17α-Hydroxy-21-[4-(2-furonylcarbonyl)-1-piperazinyl]-pregna-4,9(11)-diene-3,20-dione], the inhibition of angiogenesis result is reported as “demonstrate inhibition of angiogenesis”.

Regarding `COc1ccc(N2CCN(CC(=O)[C@@]3(O)CC[C@H]4[C@@H]5CCC6=CC(=O)CC[C@]6(C)[C@H]5[C@H](OC(=O)CC(C)(C)C)C[C@@]43C)CC2)cc1` [Example 32, 11α,17α-dihydroxy-21-[4-(4-methoxyphenyl)-1-piperazinyl]pregn-4-ene-3,20-dione 11-(3,3-dimethyl 1-butyrate) dihydrochloride], the inhibition of angiogenesis result is given as “demonstrate inhibition of angiogenesis”.

Consider `C[C@]12CCC(=O)C=C1CC[C@@H]1C2=CC[C@@]2(C)[C@H]1CC[C@]2(O)C(=O)CN1CCN(c2cc(N3CCCC3)nc(N3CCCC3)n2)CC1` [Example 64, 17α-hydroxy-21-[4-[2,6-bis(1-pyrrolidinyl)-4-pyrimidinyl]-1-piperazinyl]pregna-4,9(11)-diene-3,20-dione (E)-2-butenedioate (1:1) salt], for which the inhibition of angiogenesis entry was “demonstrate inhibition of angiogenesis”.

In the case of `C[C@]12CC[C@@H](O)C[C@H]1CC[C@@H]1[C@@H]2C(=O)C[C@@]2(C)[C@H]1CC[C@]2(O)C(=O)CN1CCN(c2ccccn2)CC1` [Example 99, 3α,17α-dihydroxy-21-[4-(2-pyridinyl)-1-piperazinyl]-5β-pregnane-11,20-dione dihydrochloride hydrate], the inhibition of angiogenesis entry is reported as “demonstrate inhibition of angiogenesis”.

Take `C[C@]12CCC(=O)C=C1CC[C@@H]1[C@@H]2C(=O)C[C@@]2(C)[C@H]1CC[C@]2(O)C(=O)CN1CCN(c2ccccn2)CC1` [Example 20]: the inhibition of angiogenesis result is “demonstrate inhibition of angiogenesis”.

Take `CCN(CC)c1cc(N2CCN(CC(=O)[C@@]3(O)CC[C@H]4[C@@H]5C[C@H](C)C6=CC(=O)C=C[C@]6(C)C5=CC[C@@]43C)CC2)nc(N(CC)CC)n1` [Example 63, 21-[4-[2,6-bis(diethylamino)-4-pyrimidinyl]-1-piperazinyl]-17α-hydroxy-6α-methylpregna-1,4,9(11)-triene-3,20-dione(E)-2-butenedioate (1:1) salt]: the inhibition of angiogenesis entry is reported as “demonstrate inhibition of angiogenesis”.

Regarding `COc1ccc(CCNCC(=O)[C@@]2(O)CC[C@H]3[C@@H]4C[C@H](C)C5=CC(=O)C=C[C@]5(C)[C@H]4[C@@H](O)C[C@@]32C)cc1OC` [Example 34, 11β,17α-dihydroxy-21-[[2-(3,4-dimethoxyphenyl)ethyl]-amino]-6α-methylpregna-1,4-diene-3,20-dione hydrochloride], the inhibition of angiogenesis result is reported as “demonstrate inhibition of angiogenesis”.

With `COc1ccc(N2CCN(CC(=O)[C@@]3(O)CC[C@H]4[C@@H]5C[C@H](C)C6=CC(=O)C=C[C@]6(C)[C@H]5[C@@H](O)C[C@@]43C)CC2)cc1` [Example 33, 11β,17α-dihydroxy-21-[4-(4-methoxyphenyl)-1-piperazinyl]-6α-methylpregna-1,4-diene-3,20-dione dihydrochloride], the inhibition of angiogenesis entry is on record as “demonstrate inhibition of angiogenesis”.
